In PubChem BioAssay (NCI) one finds TGI and GI50 data, which are given here for 10 compounds.

Common to all, as to assay: NCI tumour cell line growth inhibition, 48 h
Experiment [1] concerns HCT-116 colon.
Experiment [2] concerns NCI-H460 lung.
The test system of experiment [3] is U251 CNS.
Experiment [4] relates to UACC-257 melanoma.
Experiment [5] has as its system OVCAR-3 ovarian.
The test system of experiment [6] is KM12 colon.
The test system of experiment [7] is HOP-92 NSCLC.
The test system of experiment [8] is NCI-H226 lung.
Experiment [9] has as its system HCT-15 colon.
For experiment [10], the system named is SK-MEL-5 melanoma.

Where “and” joins values, the source holds several entries; their conditions need not be identical. Equal entries are not always repeated.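 Exposure lasted 48 hours, with cells grown in 96-well plates and compounds tested at five concentrations. Abbreviation: GI50, concentration required for 50% inhibition of growth. At the TGI there is no net growth.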

On to `O=S(O)c1cc(Cl)c(O)c(Cl)c1`, for which the TGI in [1], in [2], in [3], in [4], in experiment [5] and in [6] was above 100 µM each time.

Consider `Cn1c(=O)c2[nH]c(SC/C(=N/O)c3ccc(Br)cc3)nc2n(C)c1=O`, for which the GI50 in experiment [1] is 3.19 µM; in [7] it was 2.02 µM. Further, the TGI was above 100 µM in experiment [1] and 4.56 µM in experiment [7].

For `COc1ccc2c3/c(=C\c4ccc(N(C)C)cc4)c4ccccc4n3[n+](C)c2c1`, the GI50 in experiment [8] is 0.244 µM; in experiment [9] it was 0.475 µM; in experiment [1], 0.0533 µM; in experiment [2], 0.16 µM; in [7], 0.236 µM; in experiment [4] it was 0.0346 µM. Besides, the GI50 in [5] was 0.0358 µM; in [6], 0.255 µM. For the same compound, the TGI in [8] is 1.68 µM; in experiment [9], above 100 µM; in [1], above 100 µM; in experiment [2] it was 28.8 µM; in experiment [3], above 100 µM; in experiment [7], 1.78 µM. For the same compound, the values for the TGI in experiment [4], in experiment [5] and in experiment [6] were 0.424 µM, 0.369 µM and 1.24 µM, respectively.

On to `COc1ccccc1C(=O)OCC1CCCN2CCCCC12` (stereo not given), for which the TGI in experiment [8] was above 100 µM; in experiment [9], above 100 µM; in experiment [10], above 100 µM; in [1] it was above 100 µM; in experiment [2], 52 µM; in experiment [3], 73.1 µM. Moreover, the TGI in experiment [7] is above 100 µM; in [4], above 100 µM; in [6] it was 36.6 µM.

Take `Cc1cc(O)c2c(c1)C(C1c3cccc(O)c3C(=O)c3c(O)cc(C)cc31)c1cccc(O)c1C2=O` (stereo not given): the TGI in experiment [8] was found to be 2.24 µM; in experiment [9] it was 12.3 µM; in experiment [10], 0.557 µM; in experiment [1], 18.9 µM; in experiment [2], 12.8 µM; in experiment [3] it was 12.3 µM. Besides, the TGI in experiment [7] worked out at 0.706 µM; in experiment [4] it was 1.25 µM; in experiment [5] it was 0.739 µM; in experiment [6], 4.29 µM.

Consider `O=C1C(=C([O-])c2ccccc2)C(=O)c2ccccc21.O=C1C(=C([O-])c2ccccc2)C(=O)c2ccccc21.[Ni+2]`, for which the GI50 in experiment [8] was 4.68 µM; in experiment [9], 47.2 µM; in experiment [10] it was 18.2 µM; in [2], 33.9 µM; in experiment [3] it was 34.5 µM; in experiment [4], 83.3 µM. Also, the GI50 in experiment [6] is 84.6 µM. In addition, the TGI was 63.5 µM in [8]; above 100 µM in experiment [9]; 54.9 µM in experiment [10]; above 100 µM in experiment [2]; above 100 µM in experiment [3]; above 100 µM in experiment [4]. Also, the TGI in [6] is above 100 µM.

As for `O=c1[nH]c(=O)n(C2CC(O)C(CO)O2)cc1Br` (stereo not given), the TGI in experiment [8], in [9], in [10], in experiment [1], in [2] and in experiment [3] was above 100 µM throughout. Besides, the TGI in experiment [7], in experiment [4], in [5] and in [6] was above 100 µM each time.

Turning to `CC1OC(O[C@@H]2C=C3CC[C@@H]4[C@H](CC[C@]5(C)[C@@H](c6ccc(=O)oc6)CC[C@]45O)[C@@]3(C)CC2)C(O)C(OC2OC(CO)C(O)C(O)C2O)C1O` (stereo not given in full), the GI50 was 0.0101 µM in experiment [8]; 0.000532 µM in [9]; 0.00014 µM in experiment [10]; 0.000247 µM in experiment [3]; 0.000166 µM in [7]; 0.00126 µM in experiment [4]. In addition, the GI50 was 0.000162 µM in experiment [5] and 0.000437 µM in experiment [6]. Further, the TGI is 0.0549 µM and 0.0732 µM in experiment [8]; 0.116 µM and 0.0443 µM in experiment [9]; 0.0175 µM in [10]; 0.00143 µM in experiment [2]; 0.0176 µM and 0.0352 µM in [3]; 0.0441 µM and 0.0265 µM in experiment [4]. Besides, the TGI in experiment [5] is 0.0253 µM; in experiment [6], 0.182 µM and 0.039 µM.

In the case of `COc1cc(O)c(Cc2ccccc2O)c(O)c1C(=O)CCc1ccccc1`, the TGI was found to be 32 µM in experiment [8]; 19.9 µM in experiment [9]; 9.36 µM in [10]; 13.7 µM in experiment [1]; 12.2 µM in [2]; 14.5 µM in experiment [3]. Also, the TGI in experiment [7] stood at 10.8 µM; in [4] it was 16.1 µM; in experiment [5], 16.1 µM; in experiment [6], 25.3 µM.

As to `NC(=O)/N=C/c1c(O)c2ccccc2oc1=O`, the TGI in [8], in experiment [9], in experiment [10], in [1], in experiment [2] and in [7] was above 100 µM each time. Further, the TGI in experiment [4], in [5] and in experiment [6] was above 100 µM throughout.
